{"source": "paper PMC3399945", "about": "(Journal of the American Chemical Society, 2012)", "key": {"[1]": {"test": "Amide hydrogen-deuterium exchange", "assay_type": "physicochemical", "details": "for H/D rate constant: D2O/TFE-d3 80/20, 20 °C, NMR, in duplicate; for Stabilization, −ΔG (free energy of protection): from H/D exchange, 20 °C"}, "[2]": {"test": "Thermal denaturation monitored by CD / Zimm–Bragg model", "assay_type": "physicochemical", "details": "from broad thermal transition, CD in 10% TFE/PBS, Zimm–Bragg simulation"}, "[3]": {"target": "N-terminal His6-tagged MDM2 (25–117) (Homo sapiens, UniProt Q00987)", "test": "Fluorescence polarization-based competition binding assay with Flu-p53", "details": "comparison with previously reported affinity of 1 (ref 38)"}, "[4]": {"assay_type": "physicochemical", "details": "10% TFE in PBS, 25 °C, 100 μM peptide, pH 7.4"}}, "note": "Square brackets hold non-standard residues; d marks the D form. Peptide text beside a SMILES is read from it. * marks the point of attachment. X1 = NC(=O)CC[C@@H]1NC(=O)CC/C=C/CN(CCC(=O)*)C(=O)[C@H](CCC(=O)O)NC1=O; β3hL = CC(C)C[C@H](N)CC(=O)O"}
{"compound": "CC(C)C[C@@H](CC(=O)N[C@@H](Cc1c[nH]c2ccccc12)C(=O)N[C@@H](CCCCN)C(=O)N[C@@H](CC(C)C)C(=O)N[C@H](CC(=O)N[C@@H](CO)C(N)=O)CC(C)C)NC(=O)[C@H](CC(=O)O)NC(=O)[C@H](CO)NC(=O)[C@H](Cc1ccccc1)NC(=O)CCN1C/C=C/CCC(=O)N[C@@H](CCC(N)=O)C(=O)N[C@@H](CCC(=O)O)C1=O", "note": "[Peptide 2] (X1-FSD[β3hL]WKL[β3hL]S-NH2)", "values": [{"measurement": "H/D rate constant", "setting": "[1]; residue 4 (F^4)", "result": 0.0003809, "unit": "h⁻¹"}, {"measurement": "H/D rate constant", "setting": "[1]; residue 5 (S^5)", "result": 0.0003809, "unit": "h⁻¹"}, {"measurement": "H/D rate constant", "setting": "[1]; residue 8 (W^8)", "result": "6.9e-06", "unit": "h⁻¹"}, {"measurement": "H/D rate constant", "setting": "[1]; residue 9 (K^9)", "result": "2.8e-06", "unit": "h⁻¹"}, {"measurement": "H/D rate constant", "setting": "[1]; residue 12 (S^12)", "result": "5.85e-05", "unit": "h⁻¹"}, {"measurement": "nucleation constant σ", "setting": "[2]", "result": "≥ 1"}]}
{"compound": "CC(C)C[C@@H](CC(=O)N[C@@H](CC(C)C)C(=O)N[C@@H](CO)C(N)=O)NC(=O)[C@H](CCCCN)NC(=O)[C@H](Cc1c[nH]c2ccccc12)NC(=O)[C@H](CC(C)C)NC(=O)C[C@H](CC(=O)O)NC(=O)[C@H](CO)NC(=O)[C@H](Cc1ccccc1)NC(=O)CN1C/C=C/CCC(=O)N[C@@H](CCC(N)=O)C(=O)N[C@@H](CCC(=O)O)CC1=O", "note": "[Peptide 3]", "values": [{"measurement": "affinity for MDM2 compared with HBS α-helix 1 (in words)", "setting": "[3]", "result": "comparable to that previously reported for the optimized HBS p53 α-helix analog 1"}, {"measurement": "H/D rate constant", "setting": "[1]; residue 4 (F^4)", "result": "1.33e-05", "unit": "h⁻¹"}, {"measurement": "H/D rate constant", "setting": "[1]; residue 5 (S^5)", "result": "1.07e-05", "unit": "h⁻¹"}, {"measurement": "H/D rate constant", "setting": "[1]; residue 8 (W^8)", "result": "1.4e-06", "unit": "h⁻¹"}, {"measurement": "H/D rate constant", "setting": "[1]; residue 9 (K^9)", "result": "8e-07", "unit": "h⁻¹"}, {"measurement": "H/D rate constant", "setting": "[1]; residue 12 (S^12)", "result": "2.6e-06", "unit": "h⁻¹"}, {"measurement": "nucleation constant σ", "setting": "[2]", "result": "≥ 1"}]}
{"compound": "XQEG*FSDLWKLLS-NH2 (sidechain bridge or staple) [Peptide 1]", "values": [{"measurement": "H/D rate constant", "setting": "[1]; residue 4 (F^4)", "result": 0.0003808, "unit": "h⁻¹"}, {"measurement": "H/D rate constant", "setting": "[1]; residue 5 (S^5)", "result": 0.0003808, "unit": "h⁻¹"}, {"measurement": "Stabilization, −ΔG (free energy of protection)", "setting": "[1]; residue 6 (D^6 in 1 and 2, Dβ^6 in 3)", "result": -0.58, "unit": "kcal/mol"}, {"measurement": "Stabilization, −ΔG (free energy of protection)", "setting": "[1]; residue 7 (L^7 in 1 and 3, Lβ^7 in 2)", "result": 0.52, "unit": "kcal/mol"}, {"measurement": "H/D rate constant", "setting": "[1]; residue 8 (W^8)", "result": "1.8e-06", "unit": "h⁻¹"}, {"measurement": "Stabilization, −ΔG (free energy of protection)", "setting": "[1]; residue 8 (W^8)", "result": 1.22, "unit": "kcal/mol"}, {"measurement": "H/D rate constant", "setting": "[1]; residue 9 (K^9)", "result": "5.1e-06", "unit": "h⁻¹"}, {"measurement": "Stabilization, −ΔG (free energy of protection)", "setting": "[1]; residue 9 (K^9)", "result": 1.23, "unit": "kcal/mol"}, {"measurement": "Stabilization, −ΔG (free energy of protection)", "setting": "[1]; residue 10 (L^10 in 1 and 2, Lβ^10 in 3)", "result": 1.40, "unit": "kcal/mol"}, {"measurement": "Stabilization, −ΔG (free energy of protection)", "setting": "[1]; residue 11 (L^11 in 1 and 3, Lβ^11 in 2)", "result": 1.04, "unit": "kcal/mol"}, {"measurement": "H/D rate constant", "setting": "[1]; residue 12 (S^12)", "result": "7.8e-06", "unit": "h⁻¹"}, {"measurement": "Stabilization, −ΔG (free energy of protection)", "setting": "[1]; residue 12 (S^12)", "result": 1.42, "unit": "kcal/mol"}, {"measurement": "CD signature (in words)", "setting": "[4]", "result": "CD signature typical of a canonical α-helix, with double minima near 206 and 222 nm and a maximum at 190 nm"}]}
